IC50 data for 2 compounds are collected here from ChEMBL document CHEMBL1134947, “A mechanism-based probe for gp120-Hydrolyzing antibodies” (Bioorg Med Chem Lett, 2002).

Each structure is given as a SMILES string. Square brackets hold non-standard residues; d marks the D form. Peptide text beside a SMILES is read from it. * marks the point of attachment. X2 = N=C(N)c1ccc(C(N*)P(=O)(Oc2ccccc2)Oc2ccccc2)cc1; X1 = O=C(CCCCC1SCC2NC(=O)NC21)NCCNC(=O)CCS*; Mpa = O=C(O)CCS

For orientation: IC50 means the concentration at which inhibition is half-maximal.

The target of this assay is T1, Serine protease 1 (Bos taurus, UniProt P00760).
T1 sequence (P00760 whole entry): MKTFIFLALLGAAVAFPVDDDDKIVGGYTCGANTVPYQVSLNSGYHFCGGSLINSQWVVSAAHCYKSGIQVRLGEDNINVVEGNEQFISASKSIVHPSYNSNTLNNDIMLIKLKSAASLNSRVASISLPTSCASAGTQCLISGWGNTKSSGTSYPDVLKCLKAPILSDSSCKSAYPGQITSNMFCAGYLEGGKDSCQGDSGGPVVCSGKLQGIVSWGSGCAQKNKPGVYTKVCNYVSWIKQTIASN
Briefly: Concentration required for the inhibition of catalytic activity of bovine trypsin.

In the case of `N=C(N)c1ccc(C(NC(=O)CCSSCCC(=O)NCCNC(=O)CCCCC2SCC3NC(=O)NC32)P(=O)(Oc2ccccc2)Oc2ccccc2)cc1` (configuration not stated), the IC50 is 31 µM.

On to `CC[C@H](C)[C@H](NC(=O)[C@H](CCC(N)=O)NC(=O)[C@H](CCCCN)NC(=O)CCSSCCC(=O)NCCNC(=O)CCCCC1SCC2NC(=O)NC21)C(=O)N[C@H](C(=O)N[C@@H](CC(N)=O)C(=O)N[C@@H](CCSC)C(=O)N[C@@H](Cc1c[nH]c2ccccc12)C(=O)N[C@@H](CCC(N)=O)C(=O)N[C@@H](CCC(=O)O)C(=O)N[C@H](C(=O)NCC(=O)NC(c1ccc(C(=N)N)cc1)P(=O)(Oc1ccccc1)Oc1ccccc1)C(C)C)[C@@H](C)CC` (some centres not stated) ([Mpa](X1)KQIINMWQEVG-X2), for which the IC50 came out at 30 µM.
